Source: patent publication US20090142753A1, “Compositions and methods for detecting compounds to treat a neurological disorder” (Caritas St. Elizeth Medical Center of Boston, Inc., priority 2005, published 2009)

Experiments:
[1] = system: human DJ-1 promoter; assay: DJ-1 promoter luciferase reporter assay in SH-SY5Y cells stably expressing −1000DJ-Luc; assay type: cell-based; settings: 24 hours; for DJ-1 promoter-driven luciferase activity normalized to β-galactosidase activity: SH-SY5Y cells stably expressing −1000DJ-Luc, increasing doses; for Luciferase expression directed by the human DJ-1 promoter, fold change relative to untreated: SH-SY5Y −1000DJ-Luc vs 0DJ-Luc, normalized to total protein content (FIG. 6)
Description: (§1) To develop a cell-based assay system where one can identify agents that transcriptionally activate DJ-1, a plasmid vector (−1000DJ-Luc) was made that expressed a luciferase reporter gene directed by the human DJ-1 promoter containing 1000 base pairs upstream and 65 base pairs downstream sequences (−1000 to +65) of the transcription initiation site (FIG. 1). A19 base pair sequence containing +46 to +65 of the DJ-1 gene was fused to the luciferase gene to generate the control plasmid (0DJLuc). A neomycin resistance gene was inserted into the vectors as a selection marker. Next, human dopaminergic SH-SY5Y neuroblastoma cells were transfected with either −1000DJLuc or 0DJLuc selected for stably transfected clones. A plasmid encoding β-galactosidase gene was co-transfected to serve as an internal control for luciferase expression.
To confirm the stable expression of the reporter genes and to evaluate these cells as devices for drug discovery, stably transfected SH-SY5Y cells were treated with increasing doses of H2O2. This agent has been reported to upregulate DJ-1. See for example Reference 21. Twenty-four hours after treatment, cells were harvested to analyze luciferase and β-galactosidase activities. Toxicity induced by the higher dose H2O2 was corrected by reduced β-galactosidase activities. […] SH-SY5Y cells stably expressing −1000DJ-Luc and a plasmid encoding CMV-β-galactosidase were treated with the indicated amount of H2O2 for 24 hours. Luciferase and β-galactosidase activities were then determined. Because cellular toxicity increases with increasing H2O2 dosages, luciferase activity was normalized to β-galactosidase activity, with the value of untreated sample designated as 100. The values shown represent the average of 2 experiments carried out in triplicate. (P<0.05 by Anova). The Luciferase activity in control cell lines expressing 0DJ-Luc was not affected by H2O2. To further validate the cells as tools for compound screening, a rational approach to selecting candidate compounds that can transactivate DJ-1 gene based on the analysis of the human DJ-1 promoter was taken.
SH-SY5Y cells stably expressing −1000DJ-Luc were treated with increasing doses of TSA (FIG. 3A) or sodium butyrate (FIG. 3B) for 24 hours. Results were analyzed as described in FIG. 2. DJ-1 promoter-driven luciferase activity was then assayed.
A. Plasmids and Chemicals. DJ-1 promoter sequences from −1000 to +65 relative to the transcriptional initiation site was amplified from pDJ-1(1)luc by PCR with Xho I and Hind III sites using the following primers: DJ-1 F, 5′ […] (SEQ ID NO:); DJ-1 R, 5′ […] (SEQ ID NO:). The PCR product was then inserted into pGL3basic vector (Promega), between Xho I and Hind III sites to generate 1000DJ-Luc vector. For 0DJ-Luc, the sequences from +46 to +65 relative to the transcriptional initiation site were inserted between XhoI and Hind III sites instead. To facilitate selection, a neomycin resistant gene directed by the SV40 promoter with BamHI and Xho I linker was inserted between the BamHI and SalI sites of pGL3 basic, with the original SalI site abolished after ligation. pON260 encoding β-galactosidase gene was described previously. H2O2, Trichostatin A (TSA), and sodium butyrate were obtained from Sigma.
B. Cells and Transfection. The human neuroblastoma cell line SH-SY5Y was plated in 6 well dish at 70% confluency and co-transfected with 150 ng of pON260 and 25 fmol of −1000DJ-Luc or 0DJ-Luc per well with Transfectin reagent (Bio-Rad). 24 hours after transfection, cells were re-plated in 10 cm dishes and cultured in medium with 800 μg/ml of Geneticin (G418, Invitrogen). Three days later, cells were grown in medium containing 400 μg/ml of Geneticin. Surviving clones were cultured, and expanded, and subjected to analysis.
C. Luciferase and β-galactosidase Assays. Cells were treated with the indicated doses of H2O2, TSA or sodium butyrate for 24 hours before being lysed in reporter lysis buffer (Promega). […]

[2] = system: 0DJ-Luc control plasmid (+46 to +65 of the DJ-1 gene); assay: Luciferase activity in control cell lines expressing 0DJ-Luc; assay type: cell-based, human; settings: SH-SY5Y 0DJ-Luc cells, 24 hours
Description: as §1
To confirm the stable expression of the reporter genes and to evaluate these cells as devices for drug discovery, stably transfected SH-SY5Y cells were treated with increasing doses of H2O2. This agent has been reported to upregulate DJ-1. See for example Reference 21. Twenty-four hours after treatment, cells were harvested to analyze luciferase and β-galactosidase activities. […] Luciferase and β-galactosidase activities were then determined. […]
C. […] Luciferase and β-galactosidase activities were determined using assay kits following manufacturer's protocol (Promega).

[3] = system: human DJ-1 promoter; assay: DJ-1 luciferase assay in 96-well high throughput format; assay type: cell-based; settings: 1000DJ-Luc SH-SY5Y cells, 96-well format, 5 μM, 24 hours, N=12
Protocol: FIG. 8 is a graph showing the results of a DJ-1 luciferase assay configured as a high throughput screen. Equal numbers of SH-SY5Y cells stably expressing the 1000DJ-Luc construct were plated in replicate (N=12) with 5 μM pergolide, bromocriptine or SAHA for 24 hours and then assayed for luciferase activity. The assay produced a Z′ value of 0.790 using SAHA as the positive and bromocriptine as the negative control.
The assay described above was carried out in a 96-well format. Twelve replicate samples of 1000DJ-Luc cells were each treated with pergolide or bromocriptine, which served as negative controls, or with SAHA, a compound known to increase DJ-1 expression. 5 μM of each compound was added to the cells in a 30 μl volume. Cells were lysed in 100 μl/well of passive lysis buffer, and 20 μl aliquots of the cell lysates were then used for a luciferase assay. Bromocriptine and pergolide are dopamine receptor agonists used for the treatment of motor symptoms in Parkinson's disease. […] In fact, levels of luciferase activity observed with these compounds were very similar to levels present in untreated control cells. […] A Z′ value was calculated using bromocriptine as the negative control. […] See “A Simple Statistical Parameter for Use in Evaluation and Validation of High Throughput Screening Assays” Zhang J H, Chung T D, Oldenburg K R, J Biomol Screen. 1999; 4(2):67-73.

[4] = system: DJ-1 protein; assay: Western blot of endogenous DJ-1 protein in SH-SY5Y cells; assay type: cell-based, human; settings: for Total endogenous DJ-1 protein levels: SH-SY5Y cells stably expressing −1000DJ-Luc, 24 hours, Western blot (FIG. 4); for DJ-1 protein levels: SH-SY5Y cells, TSA 0, 50, 100 ng/ml, sodium butyrate 0, 2.5, 5, 10 mM (FIG. 6C)
Protocol: SHSY5Y cells stably expressing −1000DJ-Luc were treated with TSA or sodium butyrate for 24 hours. Total proteins were then extracted and analyzed by SDS-PAGE. After transfer, the membrane was first probed with a mouse monoclonal anti-DJ-1 antibody (1:1000) to reveal DJ-1 expression (Top panel). The membrane was then stripped and re-probed with a goat polyclonal anti-actin (1:1000). Therefore, and without wishing to be bound to theory, it is believed that by activating an anti-oxidative and neuroprotective protein DJ-1, HDAC inhibitors may prevent neuronal cell death in Parkinson disease or other neurodegenerative diseases.
SHSY5Y cells stably expressing −1000DJ-Luc were treated with TSA or sodium butyrate for 24 hours. Total proteins were extracted and analyzed by SDS-PAGE. After transfer, the membrane was first probed with a mouse monoclonal anti-DJ-1 antibody (1:1000) to reveal DJ-1 expression (Top panel). The membrane was then striped and re-probed with a goat polyclonal anti-actin (1:1000).
(§2) SH-SY5Y cells (FIG. 6C), human primary neuronal cultures containing cortical neurons and glia (FIG. 6D), or mouse embryonic stem cells (FIG. 6D) were treated with increasing doses of TSA (0, 50, or 100 ng/ml) and sodium butyrate (0, 2.5, 5, or 10 mM). The cells were then lysed. The protein concentration of each sample was determined using a Protein DC assay (Bio-Rad). Equal amount of proteins (30-40 μg) were resolved by 4-20% Tris-glycine SDS-PAGE in each experiment. Proteins were transferred onto nitrocellulose membranes, and probed with antibodies against DJ-1 (Stressgen) or β-actin (Santa Cruz). DJ-1 protein was then visualized using chemiluminescent detection, ECL WESTERN BLOTTING DETECTION SYSTEM (Amersham, Piscataway, N.J.), according to the manufacturer's instructions.
Human SH-SY5Y cells, a primary neuronal culture containing dopaminergic neurons and glia, or mouse embryonic stem cells were treated with selected HDAC inhibitors for 24 hours. Cells were then lysed in RIPA-DOC buffer (50 mM Tris, pH 7.2; 150 mM NaCl; 1% Triton-X100, 1% deoxycholate and 0.1% SDS) with 1× fresh protease inhibitor cocktail. For analysis of DJ-1 protein levels in mouse brains, C57BL6 mice were injected intraperitoneally with sodium butyrate (1200 mg/kg) or vehicle (PBS) daily for 14 days. Mice were euthanized and the cortical and midbrain tissues were collected, and snap frozen in liquid nitrogen. Tissues were disrupted in RIPA-DOC buffer with 1× protease inhibitor using Dounce homogenizers. Protein concentration of each sample was determined using Protein DC assay (Bio-Rad). Equal amounts of proteins (30-40 μg) were resolved by 4-20% Tris-glycine SDS-PAGE in each experiment. […]

[5] = system: DJ-1 protein; assay: Western blot of DJ-1 protein in human primary neuronal cultures; assay type: cell-based; settings: human primary neuronal cultures containing cortical neurons and glia, increasing doses (FIG. 6D)
Protocol: as §2
(§3) Human SH-SY5Y cells, a primary neuronal culture containing dopaminergic neurons and glia, or mouse embryonic stem cells were treated with selected HDAC inhibitors for 24 hours. Cells were then lysed in RIPA-DOC buffer (50 mM Tris, pH 7.2; 150 mM NaCl; 1% Triton-X100, 1% deoxycholate and 0.1% SDS) with 1× fresh protease inhibitor cocktail. For analysis of DJ-1 protein levels in mouse brains, C57BL6 mice were injected intraperitoneally with sodium butyrate (1200 mg/kg) or vehicle (PBS) daily for 14 days. […] Protein concentration of each sample was determined using Protein DC assay (Bio-Rad). […]

[6] = system: DJ-1 protein; assay: Western blot of DJ-1 protein in mouse embryonic stem cells; assay type: cell-based; settings: increasing doses (FIG. 6D)
Protocol: as §2, §3

[7] = system: DJ-1 mRNA; assay: DJ-1 mRNA by quantitative real-time PCR in SH-SY5Y cells; assay type: cell-based, human; settings: 5 mM, 1-12 hours after treatment
Protocol: SH-SY5Y cells were treated with 5 mM of sodium butyrate. Cells were then harvested for mRNA one, two, four, eight, and twelve hours after treatment. DJ-1 mRNA levels were quantitated using real-time PCR. DJ-1 mRNA levels were normalized to internal control β-actin mRNA levels.
Total RNA was extracted from the cells treated with sodium butyrate at various time points using Trizol reagent (Invitrogen). The total RNA was then purified with the RNAeasy kit (Qiagen). The quality of the RNA was confirmed using agarose (1%) gel electrophoresis. RNA (1 ng) from each sample was then amplified using Roche LightCycler and Qiagen QuantiTect™ SYBR Green RT-PCR kit according to the manufacturer's instructions. This protocol included: reverse transcription at 50° for 20 minutes, initial activation of Hotstar Taq polymerase at 95° C. for 15 minutes, then 40 cycles of 3-step cycling, including denaturation at 94° C. for 15 seconds; annealing at 58° C. for 20 seconds; extension at 72° C. for 20 sec). A fluorescence detection step was carried out at the end of each cycle. Melting curve analysis (0.1° C. per sec ramping rate, 60-95° C.) was performed with a continuous fluorescence measurement following the 40th cycle. β-actin mRNA was amplified in parallel as an internal control.

[8] = system: DJ-1 protein; assay: DJ-1 protein levels in mouse brain in vivo (immunoblot); settings: C57BL6 mice, 1200 mg/kg intraperitoneally daily for fourteen days, cortical and midbrain tissues
Protocol: For analysis of DJ-1 protein levels in mouse brains, C57BL6 mice were injected intraperitoneally with vehicle (PBS) or sodium butyrate (1200 mg/kg) daily for fourteen days. Mice were euthanized and the cortical and midbrain tissues were collected, and snap frozen in liquid nitrogen. Tissues were disrupted in RIPA-DOC buffer with 1× protease inhibitor using a Dounce homogenizer. The protein concentration of each sample was determined using a Protein DC assay (Bio-Rad). Equal amounts of proteins (30-40 μg) were resolved by 4-20% Tris-glycine SDS-PAGE in each experiment. Proteins were transferred onto nitrocellulose membranes, and probed with antibodies against DJ-1 (Stressgen) or β-actin (Santa Cruz).
as §3

Structure (SMILES): OO [H2O2]
- DJ-1 promoter-driven luciferase activity normalized to β-galactosidase activity [1]: activated the human DJ-1 promoter in a dose dependent manner
- Luciferase activity in control cell lines expressing 0DJ-Luc [2]: not affected

Structure (SMILES): O=C(CCCCCCC(=O)Nc1ccccc1)NO [SAHA, suberoylanilide hydroxamic acid]
- Luciferase expression directed by the human DJ-1 promoter, fold change relative to untreated [1]: specifically activate luciferase expression
- Luciferase activity [3]: substantial levels of luciferase activity

Structure (SMILES): CC(/C=C/C(=O)NO)=C\[C@@H](C)C(=O)c1ccc(N(C)C)cc1 [TSA, Trichostatin A]
- DJ-1 promoter-driven luciferase activity normalized to β-galactosidase activity [1]: significantly activated the DJ-1 promoter
- Luciferase expression directed by the human DJ-1 promoter, fold change relative to untreated [1]: specifically activate luciferase expression
- Total endogenous DJ-1 protein levels [4]: increased markedly
- DJ-1 protein levels [4]: increased DJ-1 protein levels in a dose dependent fashion
- DJ-1 protein levels [5]: increased DJ-1 protein levels in a dose dependent fashion
- DJ-1 protein levels [6]: increased DJ-1 protein levels in a dose dependent fashion

Structure (SMILES): CCCN1C[C@H](CSC)C[C@@H]2c3cccc4[nH]cc(c34)C[C@H]21 [pergolide]
- Luciferase activity [3]: little luciferase activity

Structure (SMILES): CCCC(=O)[O-].[Na+] [sodium butyrate]
- DJ-1 promoter-driven luciferase activity normalized to β-galactosidase activity [1]: significantly activated the DJ-1 promoter
- Luciferase expression directed by the human DJ-1 promoter, fold change relative to untreated [1]: specifically activate luciferase expression
- Total endogenous DJ-1 protein levels [4]: increased markedly
- DJ-1 protein levels [4]: increased DJ-1 protein levels in a dose dependent fashion
- DJ-1 protein levels [5]: increased DJ-1 protein levels in a dose dependent fashion
- DJ-1 protein levels [6]: increased DJ-1 protein levels in a dose dependent fashion
- DJ-1 mRNA levels normalized to β-actin mRNA [7]: transient increase in DJ-1 mRNA levels
- DJ-1 protein levels in mouse brain [8]: increased DJ-1 protein levels in mouse brain in vivo
